Assays:
[1] = molecular target: Mitogen-activated protein kinase 3 (Homo sapiens) (UniProt P27361); assay: Inhibition of N-terminal GST-fused full length human ERK1 (1 to 379 residues) expressed in Escherichia coli expression system using Modified Erktide as substrate at 1 uM in presence of ATP by Mobility shift assay
[2] = molecular target: Serine/threonine-protein kinase D1 (Homo sapiens) (UniProt Q15139); assay: Inhibition of N-terminal GST-fused full length human PKD1 (1 to 912 residues) expressed in baculovirus expression system using GS peptide as substrate at 1 uM in presence of ATP by Mobility shift assay
[3] = molecular target: Serine/threonine-protein kinase PAK 1 (Homo sapiens) (UniProt Q13153); assay: Inhibition of N-terminal GST-fused full length human PAK1 (1 to 545 residues) expressed in baculovirus expression system using LIMKtide as substrate at 1 uM in presence of ATP by Mobility shift assay
[4] = molecular target: Rho-associated protein kinase 2 (Homo sapiens) (UniProt O75116); assay: Inhibition of N-terminal GST-fused human ROCK2 catalytic domain (1 to 553 residues) expressed in baculovirus expression system using LIMKtide as substrate at 1 uM in presence of ATP by Mobility shift assay
[5] = molecular target: Casein kinase I isoform gamma-1 (Homo sapiens) (UniProt Q9HCP0); assay: Inhibition of N-terminal GST-fused full length human CK1gamma1 (1 to 422 residues) expressed in baculovirus expression system using CKtide as substrate at 1 uM in presence of ATP by Mobility shift assay
[6] = molecular target: Testis-specific serine/threonine-protein kinase 3 (Homo sapiens) (UniProt Q96PN8); assay: Inhibition of N-terminal GST-fused full length human TSSK3 (2 to 268 residues) expressed in baculovirus expression system using GS peptide as substrate at 1 uM in presence of ATP by Mobility shift assay
[7] = molecular target: Maternal embryonic leucine zipper kinase (Homo sapiens) (UniProt Q14680); assay: Inhibition of N-terminal GST-fused truncated human MELK (1 to 493 residues) expressed in Escherichia coli expression system using GS peptide as substrate at 1 uM in presence of ATP by Mobility shift assay
[8] = molecular target: Tyrosine-protein kinase ITK/TSK (Homo sapiens) (UniProt Q08881); assay: Inhibition of N-terminal GST-fused full length human ITK (2 to 620 residues) expressed in baculovirus-infected Sf21 cells using Srctide as substrate at 1 uM in presence of ATP by Mobility shift assay
[9] = molecular target: Mitogen-activated protein kinase 13 (Homo sapiens) (UniProt O15264); assay: Inhibition of N-terminal GST-fused full length human p38delta (1 to 365 residues) expressed in Escherichia coli expression system using Modified Erktide as substrate at 1 uM in presence of ATP by Mobility shift assay
[10] = molecular target: TRAF2 and NCK-interacting protein kinase (Homo sapiens) (UniProt Q9UKE5); assay: Inhibition of N-terminal GST-fused human TNIK catalytic domain (1 to 314 residues) expressed in baculovirus expression system using Moesin-derived peptide as substrate at 1 uM in presence of ATP by Mobility shift assay
[11] = molecular target: Aurora kinase A/Targeting protein for Xklp2 (Homo sapiens) (UniProt O14965+Q9ULW0); assay: Inhibition of N-terminal GST-fused full length human AurA (1 to 403 residues)/TPX2 expressed in baculovirus-infected Sf21 cells using Kemptide as substrate at 1 uM in presence of ATP by Mobility shift assay
[12] = molecular target: Non-receptor tyrosine-protein kinase TNK1 (Homo sapiens) (UniProt Q13470); assay: Inhibition of N-terminal GST-tagged human TNK1 catalytic domain (106 to 390 residues) expressed in baculovirus-infected Sf21 cells using CSKtide as substrate at 1 uM in presence of ATP by Mobility shift assay
[13] = molecular target: Ephrin type-B receptor 3 (Homo sapiens) (UniProt P54753); assay: Inhibition of N-terminal GST-fused human EPHB3 cytoplasmic domain (596 to 998 residues) expressed in baculovirus-infected Sf21 cells using Blk/Lyntide as substrate at 1 uM in presence of ATP by Mobility shift assay
[14] = molecular target: [Pyruvate dehydrogenase (acetyl-transferring)] kinase isozyme 4, mitochondrial (Homo sapiens) (UniProt Q16654); assay: Inhibition of N-terminal GST-fused full length human PDHK4 (1 to 411 residues) expressed in Escherichia coli expression system using PDHKtide as substrate at 1 uM in presence of ATP by Mobility shift assay
[15] = molecular target: Ephrin type-A receptor 8 (Homo sapiens) (UniProt P29322); assay: Inhibition of N-terminal GST-fused human EPHA8 catalytic domain (571 to 924 residues) expressed in baculovirus-infected Sf21 cells using Blk/Lyntide as substrate at 1 uM in presence of ATP by Mobility shift assay
[16] = molecular target: Casein kinase I isoform epsilon (Homo sapiens) (UniProt P49674); assay: Inhibition of N-terminal GST-fused human CK1-epsilon catalytic domain (1 to 348 residues) expressed in baculovirus expression system using CKtide as substrate at 1 uM in presence of ATP by Mobility shift assay
[17] = molecular target: RAC-gamma serine/threonine-protein kinase (Homo sapiens) (UniProt Q9Y243); assay: Inhibition of N-terminal GST-tagged human AKT3 catalytic domain (108 to 479 residues) co-expressed with His-tagged PDK1 (1 to 556 residues) in baculovirus-infected Sf21 cells using Crosstide as substrate at 1 uM in presence of ATP by Mobility shift assay
[18] = molecular target: Sphingosine kinase 2 (Homo sapiens) (UniProt Q9NRA0); assay: Inhibition of N-terminal GST-fused full length human SPHK2 (1 to 618 residues) expressed in baculovirus expression system using Sphingosine as substrate at 1 uM in presence of ATP by Mobility shift assay
[19] = molecular target: Insulin receptor (Homo sapiens) (UniProt P06213); assay: Inhibition of N-terminal fused human INSR catalytic domain (1005 to 1310 residues) expressed in baculovirus-infected Sf21 cells using IRS1 as substrate at 1 uM in presence of ATP by Mobility shift assay
[20] = molecular target: Serine/threonine-protein kinase BRSK2 (Homo sapiens) (UniProt Q8IWQ3); assay: Inhibition of N-terminal GST-tagged full length human BRSK2 (1 to 674 residues) expressed in baculovirus-infected Sf21 cells using CHKtide as substrate at 1 uM in presence of ATP by Mobility shift assay
[21] = molecular target: Serine/threonine-protein kinase TBK1 (Homo sapiens) (UniProt Q9UHD2); assay: Inhibition of N-terminal GST-fused full length human TBK1 (1 to 729 residues) expressed in baculovirus expression system using CKtide as substrate at 1 uM in presence of ATP by Mobility shift assay
[22] = molecular target: Tyrosine-protein kinase FRK (Homo sapiens) (UniProt P42685); assay: Inhibition of N-terminal GST-fused human FRK catalytic domain (223 to 505 residues) expressed in baculovirus-infected Sf21 cells using Srctide as substrate at 1 uM in presence of ATP by Mobility shift assay
Chain of Tyrosine-protein kinase FRK (Homo sapiens) (P42685 whole entry, the tested form may be a part): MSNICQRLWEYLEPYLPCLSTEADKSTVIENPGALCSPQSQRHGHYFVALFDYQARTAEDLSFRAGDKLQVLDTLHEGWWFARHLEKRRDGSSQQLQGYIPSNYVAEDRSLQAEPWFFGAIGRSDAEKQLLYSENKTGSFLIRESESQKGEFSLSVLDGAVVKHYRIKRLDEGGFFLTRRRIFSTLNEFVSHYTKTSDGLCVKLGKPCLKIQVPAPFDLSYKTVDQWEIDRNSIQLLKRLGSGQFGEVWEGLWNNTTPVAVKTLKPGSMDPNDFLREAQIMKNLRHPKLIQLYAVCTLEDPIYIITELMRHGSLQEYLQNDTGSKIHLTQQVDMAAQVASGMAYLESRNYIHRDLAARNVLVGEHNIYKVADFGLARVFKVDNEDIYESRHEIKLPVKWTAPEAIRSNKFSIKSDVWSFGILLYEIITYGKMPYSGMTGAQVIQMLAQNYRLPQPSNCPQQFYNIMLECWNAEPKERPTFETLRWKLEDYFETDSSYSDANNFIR

Chain of Maternal embryonic leucine zipper kinase (Homo sapiens) (Q14680 whole entry, looked up, the tested form may be a part): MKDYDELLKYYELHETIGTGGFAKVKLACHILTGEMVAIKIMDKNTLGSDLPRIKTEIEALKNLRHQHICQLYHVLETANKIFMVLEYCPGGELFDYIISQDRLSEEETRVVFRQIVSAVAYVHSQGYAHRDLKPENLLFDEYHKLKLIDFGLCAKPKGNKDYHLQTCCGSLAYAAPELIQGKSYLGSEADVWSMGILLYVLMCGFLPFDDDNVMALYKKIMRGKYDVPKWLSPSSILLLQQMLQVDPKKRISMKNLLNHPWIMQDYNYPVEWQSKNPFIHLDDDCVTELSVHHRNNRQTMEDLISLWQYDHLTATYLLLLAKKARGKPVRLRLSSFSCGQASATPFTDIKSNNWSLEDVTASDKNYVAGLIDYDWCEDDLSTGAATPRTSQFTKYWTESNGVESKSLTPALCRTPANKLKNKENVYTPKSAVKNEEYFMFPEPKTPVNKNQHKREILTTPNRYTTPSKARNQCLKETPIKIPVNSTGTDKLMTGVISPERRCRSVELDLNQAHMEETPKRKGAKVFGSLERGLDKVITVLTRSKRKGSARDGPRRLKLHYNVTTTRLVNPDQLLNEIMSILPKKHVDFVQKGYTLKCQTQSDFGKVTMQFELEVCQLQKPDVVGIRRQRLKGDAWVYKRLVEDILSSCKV
Chain of Ephrin type-B receptor 3 (Homo sapiens) (P54753 whole entry, the tested form may be a part): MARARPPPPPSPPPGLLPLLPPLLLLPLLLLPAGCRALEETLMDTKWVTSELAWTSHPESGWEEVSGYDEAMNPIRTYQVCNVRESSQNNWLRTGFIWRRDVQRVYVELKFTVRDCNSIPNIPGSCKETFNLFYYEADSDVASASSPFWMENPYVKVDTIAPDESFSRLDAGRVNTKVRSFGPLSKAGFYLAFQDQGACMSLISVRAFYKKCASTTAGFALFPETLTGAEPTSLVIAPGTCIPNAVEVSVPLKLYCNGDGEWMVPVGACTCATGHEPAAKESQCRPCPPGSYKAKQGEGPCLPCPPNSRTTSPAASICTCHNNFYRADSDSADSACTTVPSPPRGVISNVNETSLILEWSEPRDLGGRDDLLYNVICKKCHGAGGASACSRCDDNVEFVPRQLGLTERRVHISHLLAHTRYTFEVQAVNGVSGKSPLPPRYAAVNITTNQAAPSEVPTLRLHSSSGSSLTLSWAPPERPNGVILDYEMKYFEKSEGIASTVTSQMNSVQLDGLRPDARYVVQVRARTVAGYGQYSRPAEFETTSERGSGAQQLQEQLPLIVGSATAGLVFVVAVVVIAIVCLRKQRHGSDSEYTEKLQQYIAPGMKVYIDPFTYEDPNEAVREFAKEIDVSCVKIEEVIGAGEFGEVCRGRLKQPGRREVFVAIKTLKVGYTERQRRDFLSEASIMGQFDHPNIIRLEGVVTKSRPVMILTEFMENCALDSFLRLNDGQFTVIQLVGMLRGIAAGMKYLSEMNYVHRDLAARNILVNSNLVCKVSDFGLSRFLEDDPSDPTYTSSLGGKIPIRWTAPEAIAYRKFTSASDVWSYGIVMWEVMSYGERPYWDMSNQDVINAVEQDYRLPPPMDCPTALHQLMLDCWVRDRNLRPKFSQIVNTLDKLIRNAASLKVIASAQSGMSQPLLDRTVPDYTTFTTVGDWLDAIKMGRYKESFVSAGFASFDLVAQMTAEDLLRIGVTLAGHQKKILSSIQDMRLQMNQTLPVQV
Chain of Serine/threonine-protein kinase D1 (Homo sapiens) (Q15139 whole entry, the tested form may be a part): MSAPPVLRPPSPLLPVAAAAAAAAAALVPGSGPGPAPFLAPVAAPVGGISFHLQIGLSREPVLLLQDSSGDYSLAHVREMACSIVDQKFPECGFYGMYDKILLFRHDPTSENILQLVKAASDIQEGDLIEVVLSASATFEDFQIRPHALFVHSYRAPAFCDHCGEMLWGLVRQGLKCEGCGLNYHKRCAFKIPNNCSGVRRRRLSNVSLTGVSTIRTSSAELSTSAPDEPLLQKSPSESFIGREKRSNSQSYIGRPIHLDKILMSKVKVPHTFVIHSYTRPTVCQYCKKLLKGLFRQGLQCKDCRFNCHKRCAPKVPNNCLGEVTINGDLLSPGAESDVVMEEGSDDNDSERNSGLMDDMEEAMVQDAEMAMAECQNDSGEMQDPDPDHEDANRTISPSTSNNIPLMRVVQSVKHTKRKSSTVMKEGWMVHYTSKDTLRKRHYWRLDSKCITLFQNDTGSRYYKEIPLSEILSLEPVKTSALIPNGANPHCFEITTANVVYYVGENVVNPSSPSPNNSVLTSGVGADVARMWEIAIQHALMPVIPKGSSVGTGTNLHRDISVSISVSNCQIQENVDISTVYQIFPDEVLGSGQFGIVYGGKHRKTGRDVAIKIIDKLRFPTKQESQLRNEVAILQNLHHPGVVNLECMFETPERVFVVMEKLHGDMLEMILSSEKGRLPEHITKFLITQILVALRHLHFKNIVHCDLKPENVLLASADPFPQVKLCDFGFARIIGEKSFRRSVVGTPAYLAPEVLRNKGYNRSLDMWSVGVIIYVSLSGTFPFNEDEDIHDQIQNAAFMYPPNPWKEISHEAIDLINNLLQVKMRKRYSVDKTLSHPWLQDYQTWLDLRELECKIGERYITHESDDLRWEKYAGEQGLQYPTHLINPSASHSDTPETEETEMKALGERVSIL
Chain of RAC-gamma serine/threonine-protein kinase (Homo sapiens) (Q9Y243 whole entry, the tested form may be a part): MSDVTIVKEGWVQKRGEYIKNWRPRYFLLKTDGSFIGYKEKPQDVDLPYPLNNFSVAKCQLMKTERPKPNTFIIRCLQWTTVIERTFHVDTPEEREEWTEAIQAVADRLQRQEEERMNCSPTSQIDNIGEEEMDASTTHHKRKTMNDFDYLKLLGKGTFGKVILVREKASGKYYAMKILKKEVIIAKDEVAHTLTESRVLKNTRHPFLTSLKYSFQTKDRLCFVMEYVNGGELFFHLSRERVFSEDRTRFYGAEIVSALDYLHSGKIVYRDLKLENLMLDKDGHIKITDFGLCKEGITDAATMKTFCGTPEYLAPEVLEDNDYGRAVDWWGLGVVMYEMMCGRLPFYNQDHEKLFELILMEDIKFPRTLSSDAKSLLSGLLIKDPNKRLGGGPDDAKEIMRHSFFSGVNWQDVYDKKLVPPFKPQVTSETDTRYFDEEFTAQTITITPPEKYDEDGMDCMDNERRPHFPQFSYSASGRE
Chain of Non-receptor tyrosine-protein kinase TNK1 (Homo sapiens) (Q13470 whole entry, the tested form may be a part): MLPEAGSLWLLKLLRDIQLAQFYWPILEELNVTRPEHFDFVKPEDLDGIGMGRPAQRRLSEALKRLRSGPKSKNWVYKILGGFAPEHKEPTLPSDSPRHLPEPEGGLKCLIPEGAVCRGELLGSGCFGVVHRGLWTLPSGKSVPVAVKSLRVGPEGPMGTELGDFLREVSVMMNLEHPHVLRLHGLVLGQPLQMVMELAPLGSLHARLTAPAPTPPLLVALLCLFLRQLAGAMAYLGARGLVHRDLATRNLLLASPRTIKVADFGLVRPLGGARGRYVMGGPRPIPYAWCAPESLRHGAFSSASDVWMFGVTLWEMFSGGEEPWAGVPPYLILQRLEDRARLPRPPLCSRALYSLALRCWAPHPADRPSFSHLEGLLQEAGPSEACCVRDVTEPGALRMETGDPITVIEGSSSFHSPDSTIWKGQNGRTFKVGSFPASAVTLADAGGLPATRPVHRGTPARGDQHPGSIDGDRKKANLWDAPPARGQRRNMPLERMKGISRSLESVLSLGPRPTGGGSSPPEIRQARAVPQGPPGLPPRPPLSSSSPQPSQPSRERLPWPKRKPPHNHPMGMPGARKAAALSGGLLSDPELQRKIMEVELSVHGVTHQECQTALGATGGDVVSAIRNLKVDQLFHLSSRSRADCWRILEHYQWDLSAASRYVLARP
Chain of Tyrosine-protein kinase ITK/TSK (Homo sapiens) (Q08881 whole entry, the tested form may be a part): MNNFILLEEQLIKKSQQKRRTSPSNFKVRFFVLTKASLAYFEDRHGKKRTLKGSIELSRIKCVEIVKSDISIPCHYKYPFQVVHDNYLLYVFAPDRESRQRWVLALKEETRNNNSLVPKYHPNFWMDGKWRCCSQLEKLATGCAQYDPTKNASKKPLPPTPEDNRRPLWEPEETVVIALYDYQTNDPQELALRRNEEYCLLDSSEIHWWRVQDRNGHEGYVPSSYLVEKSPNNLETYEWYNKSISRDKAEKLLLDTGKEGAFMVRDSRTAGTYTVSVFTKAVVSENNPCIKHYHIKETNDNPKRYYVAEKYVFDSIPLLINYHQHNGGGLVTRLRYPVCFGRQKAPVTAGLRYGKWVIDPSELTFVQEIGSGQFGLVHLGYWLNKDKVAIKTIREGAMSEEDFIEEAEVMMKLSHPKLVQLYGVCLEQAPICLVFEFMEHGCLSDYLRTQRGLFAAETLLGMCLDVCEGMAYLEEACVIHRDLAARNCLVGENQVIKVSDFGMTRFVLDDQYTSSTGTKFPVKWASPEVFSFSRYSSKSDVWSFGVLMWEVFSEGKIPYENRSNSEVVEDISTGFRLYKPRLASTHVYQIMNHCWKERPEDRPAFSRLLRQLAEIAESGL

Cc1cc(C)c(CNC(=O)c2cc(Br)c3c(c2C)O[C@@](C)([C@H]2CC[C@H](N(C)C)CC2)O3)c(=O)[nH]1
inhibition [1]: -2.6% | inhibition [2]: -6.9% | inhibition [3]: 2.3% | inhibition [4]: 2.2% | inhibition [5]: 0.5% | inhibition [6]: 12.1% | inhibition [7]: 2.9% | inhibition [8]: -5.6% | inhibition [9]: -4.7% | inhibition [10]: 1.1% | inhibition [11]: -4.6% | inhibition [12]: -3.4% | inhibition [13]: -4.4% | inhibition [14]: -4.1% | inhibition [15]: -7% | inhibition [16]: 1.5% | inhibition [17]: -6.2% | inhibition [18]: 12.7% | inhibition [19]: 4.8% | inhibition [20]: 6.6% | inhibition [21]: -4.6% | inhibition [22]: -3.6%

Cc1cc(C)c(CNC(=O)c2cc(Cl)c3c(c2C)O[C@@](C)([C@H]2CC[C@H](N(C)C)CC2)O3)c(=O)[nH]1 [VALEMETOSTAT]
inhibition [1]: -4.1% | inhibition [2]: -6.9% | inhibition [3]: 2.6% | inhibition [4]: 3.3% | inhibition [5]: -1.8% | inhibition [6]: 7.3% | inhibition [7]: 1.3% | inhibition [8]: -5.8% | inhibition [9]: -6.9% | inhibition [10]: 0.3% | inhibition [11]: -6.8% | inhibition [12]: -6.8% | inhibition [13]: -5.9% | inhibition [14]: -4.3% | inhibition [15]: -5.3% | inhibition [16]: -2.2% | inhibition [17]: -5.3% | inhibition [18]: 8% | inhibition [19]: 0.1% | inhibition [20]: 11.2% | inhibition [21]: -2.6% | inhibition [22]: -4.5%
